Tests used:
[1] = test system: imiquimod-induced psoriasis; assay: Imiquimod induced model of psoriasis; format: in vivo, C57BL/6 mice; details: 10 mg/kg oral gavage daily, one week, vs vehicle
Experimental: IMQ-induced model. C57BL/6 mice were anesthetized, shaved, and briefly exposed to depilatory cream on the surface of the back. Mice were given three days to recover from the procedure prior to entry to the study. After 3 days, mice were challenged with approximately 60 mg of […] imiquimod cream daily by spreading cream over the shaved area. Mice were scored daily for erythema, scaling and skin thickness. Treatment with BT-108-1 (10 mg/kg) or vehicle control occurred by oral gavage. Dosage was calculated based off mean body weights.
Analysis. Spleens were excised and crushed by microscope slides. Red blood cells were hypotonically lysed from the resultant suspension. Samples were filtered, washed and centrifuged prior to staining. Th1 (Tbet+ IFNγ+), Th17 (RORγT+ IL17+), Treg (CD25+ FOXP3+ IL10+) and Tfh (BCL6+ IL21+) were quantified from CD3+ CD4+ T cells by flow cytometry.

[2] = test system: NOD model of type 1 diabetes; assay: NOD mouse model of type 1 diabetes; format: in vivo, Non-obese diabetic (NOD) ShiLt mice; details: 10 mg/kg oral gavage daily, vs vehicle
Experimental: NOD model. Non-obese diabetic (NOD) ShiLt mice were used in this study. NOD mice have numerous genetic mutations that enable the spontaneous onset of hyperglycemia and pancreatic pathologies associated with T1D. Mice entered into the experiment at 9 weeks of age and were monitored for a 12-week period. Mice were treated daily with vehicle or 10 mg/kg BT-108-1 by oral gavage. Once weekly blood samples were collected from the tail vein to be tested for glucose concentration by glucometer.

DSS colitis = assay: DSS model of colitis; format: in vivo, mice; details: 10 mg/kg once daily oral gavage, 7 days of DSS, vs vehicle
Experimental: DSS model. Mice were given DSS in drinking water for seven days to induce disruption of the epithelial layer. At project initiation, mice were 8 weeks of age and began dosing 24 hours after being placed on DSS. BT-108-1 was prepared within a 0.5% methylcellulose (12-15 cP) solution. Dosage used was 10 mg/kg delivered once daily. Dosage was calculated based off mean body weights for each gender. Oral dosage was delivered by orogastric gavage of dosage in 0.2 mL volume.
Flow Cytometry. Colons were collected into RPMI/FBS buffer containing collagenase (300 U/mL) and DNase (50 U/mL) for digestion. Tissues were digested for 60 minutes under stirring at 37° C. Resultant cellular suspensions were filtered through 100 μm strainers, centrifuged (300× g, 8 min), and washed in fresh RPMI. Following filtration of the resulting single cell suspensions, immune cells were purified by Percoll gradient of cell-containing 40% Percoll overlayed onto 70% Percoll solution. After centrifugation, interphase was collected and washed to obtain enriched colonic lamina propria cell fractions. Cells were labeled with mixtures of extracellular (CD45, CD3, CD4, CD8, CD19, NK1.1, F4/80, CD11b, Gr1) antibodies in a sequential live staining in 96-well plates. Data was acquired using a FACS Celesta flow cytometer with FACSDiva software.
Histopathology. Colonic tissues were fixed in 10% formalin, paraffin embedded, and H&E stained. Sections were examined using an Olympus microscope. Histological score was assessed through a composite scoring system of leukocytic infiltration, epithelial erosion, and mucosal thickness.

[3] = test system: Western diet model of nonalcoholic steatohepatitis; assay: Western diet / CCl4 model of nonalcoholic steatohepatitis; format: in vivo, C57BL/6 mice; details: 5 mg/kg oral gavage daily, after 4 weeks of treatment, vs vehicle
Experimental: WD-induced model. C57BL/6 mice were placed on a Western diet consisting of a high-fat diet with addition of 23.1 g/L d-fructose and 18.9 g/L d-glucose to drinking water and weekly intraperitoneal injections of 0.2 μL/g CCl4 to induce steatohepatitis. Matching groups on control diet were included. Mice were treated daily, in a therapeutic manner after 8 weeks of diet. Treatment with BT-108-1 (5 mg/kg) or vehicle control occurred by oral gavage. Dosage was calculated based off mean body weights.
Analysis. Livers were excised and weighed. Sections of livers were excised and stored in buffered formalin for Sirius red staining or snap frozen for assessment of triglycerides. Severity of fibrosis was assessed by scoring of Sirius red stained liver.

CD4+ T cells = assay: Immunological screening in vitro in CD4+ T cells (flow cytometry); format: cell-based, C57BL/6 mice; details: 100 nanomolar, 24 h, anti-CD3/CD28, PMA and ionomycin last 6 h, relative to vehicle control
Excerpt: Cell culture. Spleens were excised from C57BL/6 mice. Spleens were crushed between the frosted ends of microscope slides and filtered to provide a cellular suspension. Red blood cells were lysed through hypotonic lysis. Remaining cells were washed and filtered. CD4+ T cells were enriched within the suspension using magnetic sorting based negative selection. Cells were collected and plated within 96 well plates coated with anti-CD3/CD28 and cultured in the presence of BT-108-1, BT-108-2, BT-108-6, BT-108-8, BT-108-12, and BT-108-15 at 0 or 100 nanomolar for 24 h. During the last 6 h of culture, cells were stimulated with phorbol 12-myristate-13-acetate (PMA) and ionomycin.
Immunological analysis. Cells were collected from 96 well plates and stained with a cocktail of antibodies for immunophenotyping by flow cytometry. Culture supernatant was collected and assayed for cytokine concentrations by cytometric bead array. Data was captured on a BD FACS Celesta and analyzed using FACSDiva.

[4] = test system: collagen induced arthritis; assay: Collagen induced model of arthritis; format: in vivo, C57Bl/6 mice; details: 5 mg/kg oral daily for four weeks, vs vehicle
Experimental: Models. Six-week-old C57Bl/6 mice were immunized with 200 μg of chicken collagen emulsified in complete Freund's adjuvant by intradermal injections at the base of the tail. Mice were treated with 5 mg/kg of BT-108-1 or vehicle, daily for four weeks.
Immunological analysis. Spleens were excised from mice. Tissues were crushed and filtered to provide a cellular suspension. Red blood cells were lysed. Cells were labeled with mixtures of extracellular (CD45, CD3, CD4, CD8, B220, CD19, CD138, CD21, CD24, CD1d, CD11b, CD86, CD80) and intracellular (BCL6, IL21, IL10, TNF) antibodies in a sequential live staining in 96-well plates in preparation for flow cytometry. Data was captured on a BD FACS Celesta and analyzed using FACSDiva.

Row | SMILES | Th17 cells (CD4+ IL17+) in the spleen [1] | severity of disease (composite scoring of skin) [1] | proportion of mice that developed hyperglycemia ([2]; by the end of the study) | fasting blood glucose levels ([2]; throughout the 12-week treatment period) | Th17 cells (CD4+ IL17+) in the colonic lamina propria (DSS colitis) | histopathology score (colon) (DSS colitis) | neutrophils in the colonic lamina propria (DSS colitis) | body weight normalized liver weights [3] | fibrotic scoring (Sirius red stained liver) [3] | liver triglycerides [3] | IFNγ production / IFNγ+ CD4+ T cells (CD4+ T cells) | TNFα production / TNF+ CD4+ T cells (CD4+ T cells) | proportion of IL-17+ CD4+ T cells in the spleens [4] | proportion of TNF+ immune cells in the spleens [4]
1 | O=C(Nc1cncc(-c2cnnc3ccccc23)c1)C(O)(c1ccccc1)c1ncc[nH]1 (stereo not drawn) [BT-108-1, N-(5-(cinnolin-4-yl)pyridin-3-yl)-2-hydroxy-2-(1H-imidazol-2-yl)-2-phenylacetamide] | reduced | reduced | lower proportion | lower | decreased | decreased | decreased | reduced | reduced | reduced | significant reduction | significant reduction | significantly reduced | significantly reduced
2 | COc1cccc(C(O)(C(=O)Nc2cncc(-c3cnnc4ccccc34)c2)c2ncc[nH]2)c1 (stereo not drawn) [BT-108-12, N-(5-(cinnolin-4-yl)pyridin-3-yl)-2-hydroxy-2-(1H-imidazol-2-yl)-2-(3-methoxyphenyl)acetamide] | – | – | – | – | – | – | – | – | – | – | significant reduction | significant reduction | – | –
3 | O=C(Nc1cncc(-c2cnnc3ccc(C(F)(F)F)cc23)c1)C(O)(c1ccccc1)c1ncc[nH]1 (stereo not drawn) [BT-108-15, N-(5-(6-trifluoromethylcinnolin-4-yl)pyridin-3-yl)-2-hydroxy-2-(1H-imidazol-2-yl)-2-phenylacetamide] | – | – | – | – | – | – | – | – | – | – | significant reduction | significant reduction | – | –
